As usually defined, the CLint scaled is a measure of how fast metabolising enzymes remove a compound, apart from limits set by blood flow. A high value points to faster metabolism. As usually defined, the half-life is how long it takes for the measured level to halve. A higher half-life goes with slow loss. One may read the Ki as a measure of affinity in units of concentration, obtained from inhibition or displacement. The term IC50 denotes the concentration that gives 50% inhibition.

A short description of data set [1]: mouse liver microsome metabolic stability. Particulars: mouse liver microsomes; for T1/2 Ratio: normalization with respect to internal control (propranolol); for CLint scaled / half-life: mouse; for half-life: mean average, n = 2. The method, then: SGC-GAK-1 (1) was incubated with MLMs in the presence or absence of added NADPH, and the compound was quantified at various time points over an hour.
The metabolic stability of the 4-anilinoquinolines (8–13) were evaluated in MLMs (Table 1). Half-lives for metabolic clearance were normalized to propranolol in each experimental run to control for variations in the MLM preparations.
In general terms: Microsomes from liver hold many membrane-bound enzymes, among them those of drug oxidation.

The target in data set [2] is T1, GAK (Homo sapiens, UniProt O14976).
T1 sequence (O14976 1-1311): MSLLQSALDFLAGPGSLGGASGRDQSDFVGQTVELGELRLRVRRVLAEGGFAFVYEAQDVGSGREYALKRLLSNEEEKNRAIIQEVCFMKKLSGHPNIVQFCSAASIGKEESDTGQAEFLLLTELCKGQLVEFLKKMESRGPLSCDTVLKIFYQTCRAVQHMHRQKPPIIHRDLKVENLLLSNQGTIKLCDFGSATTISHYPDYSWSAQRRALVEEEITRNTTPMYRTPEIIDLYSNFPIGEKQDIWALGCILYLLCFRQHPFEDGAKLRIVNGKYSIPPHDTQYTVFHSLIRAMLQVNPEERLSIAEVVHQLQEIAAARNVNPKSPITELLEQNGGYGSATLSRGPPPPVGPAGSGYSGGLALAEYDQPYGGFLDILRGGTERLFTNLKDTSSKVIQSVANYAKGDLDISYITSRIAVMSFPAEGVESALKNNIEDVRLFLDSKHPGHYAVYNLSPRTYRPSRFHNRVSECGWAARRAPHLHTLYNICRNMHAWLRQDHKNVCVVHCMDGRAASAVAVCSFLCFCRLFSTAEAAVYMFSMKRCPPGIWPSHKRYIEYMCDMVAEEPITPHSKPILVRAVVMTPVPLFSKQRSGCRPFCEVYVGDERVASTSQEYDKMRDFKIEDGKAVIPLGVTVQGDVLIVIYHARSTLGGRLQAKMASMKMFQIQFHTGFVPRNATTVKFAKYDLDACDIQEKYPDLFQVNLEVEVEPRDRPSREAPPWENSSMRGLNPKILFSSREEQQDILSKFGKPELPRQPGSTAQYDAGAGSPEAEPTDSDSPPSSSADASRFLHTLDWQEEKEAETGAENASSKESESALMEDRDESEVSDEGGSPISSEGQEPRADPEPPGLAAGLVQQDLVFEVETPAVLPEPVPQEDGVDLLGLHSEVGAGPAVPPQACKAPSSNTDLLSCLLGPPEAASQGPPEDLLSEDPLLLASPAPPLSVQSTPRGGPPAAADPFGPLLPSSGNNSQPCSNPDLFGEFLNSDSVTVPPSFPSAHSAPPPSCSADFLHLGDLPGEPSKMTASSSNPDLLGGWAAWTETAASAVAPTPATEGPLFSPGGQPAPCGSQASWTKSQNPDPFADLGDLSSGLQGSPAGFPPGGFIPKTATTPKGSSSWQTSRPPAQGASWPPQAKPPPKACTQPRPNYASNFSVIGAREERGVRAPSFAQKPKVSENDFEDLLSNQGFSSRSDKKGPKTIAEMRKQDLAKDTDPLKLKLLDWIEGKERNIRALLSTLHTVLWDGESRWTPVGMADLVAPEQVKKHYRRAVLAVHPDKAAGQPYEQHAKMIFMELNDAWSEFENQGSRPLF
The data set is described as follows: TR-FRET ligand-binding displacement assay.

Another data set has as its target AAK1 (Homo sapiens, UniProt Q2M2I8). The data set is described as follows: NAK family TR-FRET binding displacement assay. Particulars: NAK family FRET screening. In general terms: Time-resolved FRET reads energy transfer from a long-lived donor to a nearby acceptor.
A further data set can be described thus: Kinetic Solubility. The data set is classed as physicochemical. The settings on record: pH 7.4, aqueous buffer, kinetic from dmso stock, PBS pH7.4 (100 µM).
Another data set concerns the target BMP2K (Homo sapiens, UniProt Q9NSY1). The data set is described as follows: NAK family TR-FRET binding displacement assay.
Data set [3] has as its target T1, GAK. The data set is described as follows: live cell NanoBRET target engagement assay. The data set is classed as cell-based. The settings on record: for IC50: nanoBRET, mean average, n = 2.
The next data set deals with STK16 (Homo sapiens, UniProt O75716). The data set is described as follows: NAK family TR-FRET binding displacement assay.
Where [4] appears, read: T1/2 (min), mouse liver microsomes with NADPH.
[5] abbreviates: TR-FRET assay, read-out: Biochemical GAK Ki.
Where [6] appears, read: read-out: Kinetic Solubility µM.
Setting [7] is: read-out: Kinetic Solubility µg/mL.
Where [8] appears, read: NAK family FRET screening, read-out: Binding displacement assay STK16 Ki.

Where two headings read alike, the source gives them in different places.

Chain of STK16 (O75716 whole entry): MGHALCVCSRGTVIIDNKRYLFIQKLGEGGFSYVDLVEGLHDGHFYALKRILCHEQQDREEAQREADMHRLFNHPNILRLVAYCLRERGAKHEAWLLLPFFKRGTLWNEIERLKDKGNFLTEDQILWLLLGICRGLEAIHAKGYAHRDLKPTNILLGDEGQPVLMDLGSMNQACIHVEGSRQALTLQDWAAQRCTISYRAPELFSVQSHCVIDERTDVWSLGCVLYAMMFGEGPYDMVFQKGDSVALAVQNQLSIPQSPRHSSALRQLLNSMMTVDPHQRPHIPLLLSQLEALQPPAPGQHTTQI
Chain of AAK1 (Q2M2I8 whole entry): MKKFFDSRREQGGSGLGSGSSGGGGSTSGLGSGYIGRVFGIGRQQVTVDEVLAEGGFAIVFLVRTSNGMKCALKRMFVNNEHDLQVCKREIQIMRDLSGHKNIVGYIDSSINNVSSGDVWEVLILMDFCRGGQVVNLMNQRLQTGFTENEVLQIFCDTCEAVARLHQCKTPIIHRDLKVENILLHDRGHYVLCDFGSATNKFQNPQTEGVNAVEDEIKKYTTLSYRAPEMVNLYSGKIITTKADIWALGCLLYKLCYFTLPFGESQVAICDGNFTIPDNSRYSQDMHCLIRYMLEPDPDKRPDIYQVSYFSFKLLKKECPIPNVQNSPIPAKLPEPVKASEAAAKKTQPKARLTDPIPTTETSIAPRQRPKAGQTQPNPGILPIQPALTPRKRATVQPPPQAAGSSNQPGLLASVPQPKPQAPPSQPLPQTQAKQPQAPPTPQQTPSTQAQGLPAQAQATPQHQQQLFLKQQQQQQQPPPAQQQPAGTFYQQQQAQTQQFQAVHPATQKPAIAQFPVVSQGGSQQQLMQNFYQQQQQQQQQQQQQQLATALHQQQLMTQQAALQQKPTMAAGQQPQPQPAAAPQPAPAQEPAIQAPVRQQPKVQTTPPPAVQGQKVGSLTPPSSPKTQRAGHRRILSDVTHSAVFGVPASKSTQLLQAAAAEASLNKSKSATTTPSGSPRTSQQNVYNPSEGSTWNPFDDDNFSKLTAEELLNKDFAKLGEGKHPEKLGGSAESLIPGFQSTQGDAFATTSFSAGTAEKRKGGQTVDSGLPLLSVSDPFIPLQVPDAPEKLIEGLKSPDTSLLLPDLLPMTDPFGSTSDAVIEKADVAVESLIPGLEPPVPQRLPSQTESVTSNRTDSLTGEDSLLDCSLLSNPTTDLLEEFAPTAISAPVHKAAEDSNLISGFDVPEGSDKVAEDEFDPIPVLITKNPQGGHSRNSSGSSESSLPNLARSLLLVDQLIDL
Chain of BMP2K (Q9NSY1 whole entry): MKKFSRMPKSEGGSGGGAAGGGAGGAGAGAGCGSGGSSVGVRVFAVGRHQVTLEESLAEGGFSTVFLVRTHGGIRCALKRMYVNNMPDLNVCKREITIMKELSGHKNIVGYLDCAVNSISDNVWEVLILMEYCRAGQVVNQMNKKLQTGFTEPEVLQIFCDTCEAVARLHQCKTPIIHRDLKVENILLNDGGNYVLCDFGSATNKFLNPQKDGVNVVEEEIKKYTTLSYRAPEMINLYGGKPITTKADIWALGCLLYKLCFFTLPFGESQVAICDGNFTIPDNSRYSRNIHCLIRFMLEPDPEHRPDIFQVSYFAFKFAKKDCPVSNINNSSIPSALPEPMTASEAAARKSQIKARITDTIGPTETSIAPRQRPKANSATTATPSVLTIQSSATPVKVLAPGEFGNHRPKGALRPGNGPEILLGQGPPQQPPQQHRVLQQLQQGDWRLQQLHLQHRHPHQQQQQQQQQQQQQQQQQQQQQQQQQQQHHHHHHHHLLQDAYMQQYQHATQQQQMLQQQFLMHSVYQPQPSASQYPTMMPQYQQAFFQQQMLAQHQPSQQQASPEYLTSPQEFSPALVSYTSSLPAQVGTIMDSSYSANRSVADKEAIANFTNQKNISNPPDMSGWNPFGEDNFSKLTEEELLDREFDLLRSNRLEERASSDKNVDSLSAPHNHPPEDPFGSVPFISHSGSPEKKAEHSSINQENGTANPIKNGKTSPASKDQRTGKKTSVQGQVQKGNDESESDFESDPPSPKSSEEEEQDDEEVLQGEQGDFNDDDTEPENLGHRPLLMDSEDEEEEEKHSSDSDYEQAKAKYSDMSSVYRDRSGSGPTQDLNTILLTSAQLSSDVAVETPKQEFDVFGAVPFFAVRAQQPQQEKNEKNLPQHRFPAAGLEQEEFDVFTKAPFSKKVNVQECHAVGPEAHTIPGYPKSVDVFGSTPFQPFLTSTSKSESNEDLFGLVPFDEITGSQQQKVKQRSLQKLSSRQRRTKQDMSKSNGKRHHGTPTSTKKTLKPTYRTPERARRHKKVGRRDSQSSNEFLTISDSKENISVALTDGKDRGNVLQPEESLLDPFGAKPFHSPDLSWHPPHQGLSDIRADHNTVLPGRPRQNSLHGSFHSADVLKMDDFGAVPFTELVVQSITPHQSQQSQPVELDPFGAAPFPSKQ

Consider `Fc1ccc2c(c1Nc1ccnc3ccc(Br)cc13)OCO2` [Compound 14, 6-Bromo-N-(5-fluorobenzo[d][1,3]dioxol-4-yl)quinolin-4-amine], for which, in data set [1] ((+) ABT, normalized to propranolol), the “T1/2 Ratio (+) ABT” value came out at 0.18. Also, the “T1/2 Ratio (−) ABT” value in data set [1] ((−) ABT, normalized to propranolol) is 0.05. In data set [1], the “T1/2 Ratio” value is 0.27. Further, the CLint scaled turned out to be 137 L/h/kg in data set [1] (Clint (mL/min/kg) (+) ABT, (+) ABT) and 453 L/h/kg in data set [1] (Clint (mL/min/kg) (−) ABT, (−) ABT). Moreover, the half-life in data set [1] (T1/2 (min) (+) ABT, (+) ABT) stood at 2.5 min; in data set [1] (T1/2 (min) (−) ABT, (−) ABT), 0.74 min; in data set [1] (setting [4]), 1.8 min. Also, the Ki at GAK [2] (setting [5]) amounted to 0.0014 µM; at AAK1, 9.7 µM; at BMP2K, 16 µM; on STK16 (setting [8]), 20 µM. In addition, the solubility kinetic came out at 8.8 µM in the data set “Kinetic Solubility” (setting [6]) and 3.2 µg/mL in “Kinetic Solubility” (setting [7]). The same molecule came in with an IC50 against GAK [3] of 0.12 µM.
On to `Brc1ccc2nccc(Nc3cccc4cnoc34)c2c1` [Compound 21, N-(6-Bromoquinolin-4-yl)benzo[d]isoxazol-7-amine], for which, in data set [1], the “T1/2 Ratio” value is listed as 0.64. In addition, the half-life in data set [1] (setting [4]) was 5.2 min. For the same molecule, the inhibition constant Ki at GAK [2] (setting [5]) came out at 0.037 µM; at AAK1, 4.6 µM; at BMP2K it was 12 µM; on STK16 (setting [8]), 7.6 µM. Besides, the figures for the solubility kinetic in “Kinetic Solubility” (setting [6]) and in “Kinetic Solubility” (setting [7]) were 24.9 µM and 8.5 µg/mL, respectively. The molecule also registered an IC50 against GAK [3] of 1.4 µM.
`Brc1ccc2nccc(Nc3cccc4oncc34)c2c1` [Compound 22, N-(6-Bromoquinolin-4-yl)benzo[d]isoxazol-4-amine]: the “T1/2 Ratio” value in data set [1] amounted to 0.17. In data set [1] (setting [4]), this molecule showed a half-life of 1.4 min. The Ki on GAK [2] (setting [5]) is 0.019 µM; at AAK1, 4.6 µM; at BMP2K it was 15 µM; on STK16, 15 µM. For the same molecule, the results for the solubility kinetic in the data set “Kinetic Solubility” (setting [6]) and in the data set “Kinetic Solubility” (setting [7]) were 3.6 µM and 1.2 µg/mL, respectively. On GAK [3], this molecule returned an IC50 of over 5 µM.
With `Brc1ccc2nccc(Nc3cccc4ncoc34)c2c1` [Compound 23, N-(6-Bromoquinolin-4-yl)benzo[d]oxazol-7-amine], the “T1/2 Ratio” value in data set [1] came out at 0.21. Moreover, in data set [1] (setting [4]), the half-life is 1.7 min. The Ki was 0.011 µM at GAK [2] (NAK family FRET screening, read-out: Binding displacement assay GAK Ki); over 100 µM on AAK1; over 100 µM on BMP2K; over 100 µM on STK16 (setting [8]). Besides, the results for the solubility kinetic in the data set “Kinetic Solubility” (setting [6]) and in “Kinetic Solubility” (setting [7]) were 25.9 µM and 8.8 µg/mL, respectively. Also, at GAK [3] (live cell NanoBRET assay), the “IC50 values in cells” value is recorded as “submicromolar”. In addition, the IC50 at GAK [3] came to 0.34 µM.
On to `O=c1[nH]c2cc(Nc3ccnc4ccc(Br)cc34)ccc2o1` [Compound 41, 5-[(6-Bromoquinolin-4-yl)amino]-2,3-dihydro-1,3-benzoxazol-2-one], for which the “T1/2 ratios fold higher than 9” value in data set [1] is reported as at least 2 fold. In data set [1], the “T1/2 Ratio” value stood at 3.4. In addition, the half-life in data set [1] (setting [4]) is 27.8 min. The Ki was 0.11 µM on GAK [2] (setting [5]), 37 µM at AAK1, 79 µM at BMP2K and over 100 µM on STK16 (setting [8]). On GAK [3], the IC50 was over 5 µM.
As to `Cn1c(=O)[nH]c2cc(Nc3ccnc4ccc(Br)cc34)ccc21` [Compound 42, 5-[(6-Bromoquinolin-4-yl)amino]-1-methyl-2,3-dihydro-1H-1,3-benzodiazol-2-one], in data set [1], the “T1/2 ratios fold higher than 9” value is on record as at least 2 fold. For the same molecule, the “T1/2 Ratio” value in data set [1] worked out at 4.2. Further, the half-life in data set [1] (setting [4]) is 33.6 min. The Ki came to 1.6 µM on GAK [2] (setting [5]), 4.1 µM on AAK1, 6.6 µM on BMP2K and 9.3 µM on STK16 (setting [8]). This molecule showed an IC50 against GAK [3] of over 5 µM.
On to `O=S1(=O)Cc2ccc(Nc3ccnc4ccc(Br)cc34)cc2C1` [Compound 43, 5-((6-Bromoquinolin-4-yl)amino)-1,3-dihydrobenzo[c]thiophene 2,2-dioxide], for which the “T1/2 Ratio” value in data set [1] is reported as 1.9. This molecule also returned a half-life in data set [1] (setting [4]) of 15.6 min. Besides, the Ki on GAK [2] (setting [5]) was found to be 1.7 µM; at AAK1, 3.3 µM; on BMP2K, 6.4 µM; at STK16 (setting [8]), 8 µM. For the same molecule, the IC50 against GAK [3] was over 5 µM.

The values above are taken from publication PMC6891286, “Towards the Development of an In vivo Chemical Probe for Cyclin G Associated Kinase (GAK)” (Molecules, 2019).
